Values joined by “and” are separate entries in the source; they are usually repeats but may differ in a detail not shown here. Identical values can stand only once.
Tested on: advanced metastatic renal cell carcinoma
Assay: Phase III study of CCI-779 (temsirolimus) vs αIFN as first-line therapy
Format: in vivo
Conditions: for OS median: first-line, αIFN 3 MU escalating to 18 MU s.c. 3 times/week or CCI-779 25 mg i.v. weekly
From the text: In this phase III study, 626 advanced metastatic renal cell carcinoma patients from 26 countries were randomized to αIFN or CCI-779 (temsirolimus) as first-line therapy. This group is a very poor prognosis group of patients with many risk factors for early death. Patients received 3 million units (MU) of αIFN-alone subcutaneously 3 times/week, escalating to 18 MU or 25-mg CCI-779 intravenous infusion weekly.
Eligibility for this study required histologically confirmed, advanced (stage IV or recurrent disease) RCC with no prior systemic therapy for the disease. Subjects with central nervous system metastases, prior anticancer therapy for RCC and prior investigational therapy/agents within 4 weeks of randomization were excluded from the study.
The primary objective of this study was efficacy with a primary endpoint of overall survival. Secondary objectives of this study were safety, health outcomes, and additional efficacy endpoints. The secondary efficacy endpoints of this study were an evaluation of progression-free survival, response rate (complete and partial responses), clinical benefit rate, the duration of overall response, time to treatment failure, and health outcomes measurements. In addition, subject responses across all 3 treatment arms were evaluated based on screening tumor expression of proteins involved in the AKT-mTOR pathway. Other planned and post-hoc analyses were performed to assess influence of tumor histology (clear cell vs. non-clear cell), age (vs. >/=), and prognostic-risk groups (intermediate vs. poor).

[1] = patients <65yo, previously untreated advRCC, vs. αIFN
[2] = patients with clear-cell tumor histology
[3] = patients with other (non clear-cell) tumor histology
[4] = previously untreated clear-cell advRCC, vs. αIFN
[5] = previously untreated non clear-cell advRCC, TEMSR alone vs. αIFN

## CO[C@H]1C[C@@H]2CC[C@@H](C)[C@@](O)(O2)C(=O)C(=O)N2CCCC[C@H]2C(=O)O[C@H]([C@H](C)C[C@@H]2CC[C@@H](OC(=O)C(C)(CO)CO)[C@H](OC)C2)CC(=O)[C@H](C)/C=C(\C)[C@@H](O)[C@@H](OC)C(=O)[C@H](C)C[C@H](C)/C=C/C=C/C=C/1C [TEMSR, rapamycin 42-ester with 3-hydroxy-2-(hydroxymethyl)-2-methylpropionic acid]
Patients <65 years old
  OS hazard ratio, TEMSR vs. αIFN: 0.62 and 0.61
  PFS hazard ratio, TEMSR vs. αIFN: 0.61 and 0.62
[1]
  OS improved by: 64%
  PFS prolonged by: 61%
  reduction in risk of death: 39%
  risk of death or disease progression reduced by: 38%
Patients >/=65 years old
  difference in OS or PFS, TEMSR or αIFN: no difference
[2]
  OS HR, TEMSR:IFN: 0.82
  PFS HR, TEMSR:IFN: 0.76
  PFS median: 5.5 mo
  OS median: 10.7 mo
[3]
  OS HR, TEMSR:IFN: 0.49
  PFS HR, TEMSR:IFN: 0.38
  PFS median: 7.0 mo
  OS median: 11.6 mo
[4]
  OS improved by: 22%
  PFS prolonged by: 31%
  reduction in risk of death: 18%
  risk of death or disease progression reduced by: 24%
[5]
  OS improved by: 104%
  PFS prolonged by: 163%
  reduction in risk of death: 51%
  risk of death or disease progression reduced by: 62%
Stated for patients >/=65 years old
  side effect profile vs. αIFN: better side effect profile than αIFN
